# Entries after “also recorded” stand apart in the source; their conditions may differ.
# Key:
# [1] = tested on: murine dermal fibroblasts (MDFs); experiment: Scratch wound assay, murine dermal fibroblasts; type: cell-based, mouse; details: MDF, 24 hours, versus vehicle control
# Description: (§1) Primary human dermal fibroblasts (HDF) were isolated from abdominal skin or leg skin. Primary neonatal normal human epidermal keratinocytes (NHEK) were purchased (Lonza). Murine dermal fibroblasts (MDF), murine epidermal keratinocytes (MEK), murine peritoneal macrophages and murine bone marrow were isolated from C57/B16 (wt). NDb (Lepr+/−) or Db (Lepr−/−) mice.
# Fibroblasts were isolated and cultured in DMEM supplemented with 10% heat inactivated FBS. 1% penicillin/streptomycin and 1% amphotericin B. At least 4 days prior to performing assays cells were switched to DMEM supplemented with 5% charcoal-stripped FBS.
# Cells were seeded into 24 well plates and cultured to form a confluent monolayer, and then scratched with a 1 ml pipette tip. Wells were treated with E2, E4 and/or various estrogen receptor agonists and antagonists. […] A vehicle control containing the equivalent concentration of EtOH and/or DMSO was included, in addition to an untreated negative control. All treatments were diluted to working concentrations in media supplemented with 2% charcoal-stripped FBS. To visualise scratches at the defined endpoint, cells were stained with crystal violet and imaged on a Nikon E400 brightfield microscope. Scratch closure was determined from multiple independent measurements per well.
# [2] = tested on: murine dermal fibroblasts (MDF); experiment: qPCR gene expression in murine dermal fibroblasts; type: cell-based, mouse; details: for expression of ERα and ERβ: MDF, 10^−7M, qPCR
# Description: Primary human dermal fibroblasts (HDF) were isolated from abdominal skin or leg skin. Primary neonatal normal human epidermal keratinocytes (NHEK) were purchased (Lonza). Murine dermal fibroblasts (MDF), murine epidermal keratinocytes (MEK), murine peritoneal macrophages and murine bone marrow were isolated from C57/B16 (wt). NDb (Lepr+/−) or Db (Lepr−/−) mice. Fibroblasts were isolated and cultured in DMEM supplemented with 10% heat inactivated FBS. 1% penicillin/streptomycin and 1% amphotericin B. At least 4 days prior to performing assays cells were switched to DMEM supplemented with 5% charcoal-stripped FBS. Following treatments, human and murine macrophages were collected in Trizol and RNA isolated using the Trizol plus RNA isolation kit (Invitrogen. Thermo Fisher) according to the manufacturer's instructions. RNA was reverse transcribed to cDNA using GoScript reverse transcriptase (Promega). Quantitative real-time PCR was carried out using 2×Takyon SYBR Green mastermix and a CFX Connect thermocycler. Primers for ERα and ERβ were used to explore changes in ER expression after treatment of MEK and MDF with E2 and E4. To investigate the effect of E2 and E4 on MEK differentiation and the expression of ECM proteins by MDF, primers for. Snail, keratin-1 and fibronectin, collagen I. MMP-2 and MMP-9 were used. Primers for INOS. IL-1B and Tnf-α or Ccl17 were used to assess M1/M2 polarisation status. Primers for GAPDH were used to normalise data. Relative gene expression was set to vehicle controls or M0 expression unless otherwise stated. In vitro cultured murine fibroblasts were treated with either E2, E4, DPN or PPT at 10^−7M. As previously reported. […] Next, zymography was performed on cell supernatants from HDFs treated with either E2 or E4, to evaluate the effect of E2 and E4 on cell-derived MMP activity. […] The magnitude of the effect (and statistical significance) was greater in cells treated with E4. No MMP9 activity was detected in any treatment group. Finally, we explored the effect of E2 and E4 on murine fibroblast expression of extracellular matrix genes, specifically collagen 1 (Colal) and fibronectin (Fn1) (FIG. 20).
# MMP2 = experiment: Zymography of supernatants from human dermal fibroblasts; type: cell-based; details: HDFs from 3 independent donors, versus control
# Experimental: In vitro cultured murine fibroblasts were treated with either E2, E4, DPN or PPT at 10^−7M. As previously reported. […] Next, zymography was performed on cell supernatants from HDFs treated with either E2 or E4, to evaluate the effect of E2 and E4 on cell-derived MMP activity. […] The magnitude of the effect (and statistical significance) was greater in cells treated with E4. No MMP9 activity was detected in any treatment group. Finally, we explored the effect of E2 and E4 on murine fibroblast expression of extracellular matrix genes, specifically collagen 1 (Colal) and fibronectin (Fn1) (FIG. 20).
# [3] = tested on: primary mouse epidermal keratinocytes (MEKs); experiment: qPCR gene expression in primary mouse epidermal keratinocytes; type: cell-based; details: MEK; for expression of EMT marker Snail: 10^−7M; for expression of ERα and ERβ: particularly at 10^−7M, 24 hours, not statistically significant
# Experimental: as §1
# Neonatal HEK were cultured in EpiLife supplemented with […] human keratinocyte growth supplements (HKGS) and 1% penicillin/streptomycin. MEK were cultured in CnT basal medium supplemented with 1% penicillin/streptomycin and 1% amphotericin B.
# (§2) Following treatments, human and murine macrophages were collected in Trizol and RNA isolated using the Trizol plus RNA isolation kit (Invitrogen. Thermo Fisher) according to the manufacturer's instructions. RNA was reverse transcribed to cDNA using GoScript reverse transcriptase (Promega). Quantitative real-time PCR was carried out using 2×Takyon SYBR Green mastermix and a CFX Connect thermocycler. Primers for ERα and ERβ were used to explore changes in ER expression after treatment of MEK and MDF with E2 and E4. To investigate the effect of E2 and E4 on MEK differentiation and the expression of ECM proteins by MDF, primers for. Snail, keratin-1 and fibronectin, collagen I. MMP-2 and MMP-9 were used. Primers for INOS. IL-1B and Tnf-α or Ccl17 were used to assess M1/M2 polarisation status. Primers for GAPDH were used to normalise data. Relative gene expression was set to vehicle controls or M0 expression unless otherwise stated.
# Next, we switched to primary mouse epidermal keratinocytes (MEKs) to explore the effect of E2 and E4 on MEK wound-relevant gene expression. […] Snail, following treatment with either E2 or E4 at 10^−7M. […] In general, the observed effects of E2 and E4 on gene expression were reversed by co-treatment with the ER antagonist ICI.
# [4] = tested on: mouse bone marrow derived macrophages (BMDM); experiment: M1-polarised murine bone marrow derived macrophages, qPCR of M1 markers; type: cell-based; details: for relative iNOS expression (M1 cell phenotype): formulations and E2/E4
# Experimental: Bones were flushed with DMEM supplemented with 1% penicillin/streptomycin and 1% amphotericin B. Bone marrow cells were seeded into 12- or 6-well plates at 1×10^6 cells/ml in DMEM supplemented with 10% FBS and 10% L929-conditioned medium to induce differentiation. After 7-10 days, differentiated macrophages were treated with 10^−7M E2 or E4 in serum free growth medium for 16 hours and polarised to M1-type cells using 100 ng/ml IFN-γ and 1 μg/ml LPS. Following 6- or 24-hours polarisation cells were collected for RNA isolation or flow cytometry.
# as §2
# For follow up experiments murine bone marrow derived monocytes were isolated, differentiated (L929 media) and polarised to a pro-inflammatory M1 phenotype (IFN-γ and LPS: for 6 or 24 hours), and co-treated with either E2 or E4 at the optimal concentration identified in THP1 cells (10^−7: FIG. 24). […] Experiments were then undertaken with murine bone marrow derived monocytes differentiated to macrophages with 30 ng/ml MCSF, as opposed to L929 conditioned media.
# [5] = fibroblasts derived from diabetic (db/db) mice
# [6] = fibroblasts derived from wild-type mice
# [7] = L929 differentiated BMDM, M1 polarised 6 or 24 hours, 10^−7, versus vehicle
# [8] = L929 differentiated BMDM, M1 polarised
# [9] = MCSF differentiated BMDM, M1 polarised
# [10] = MCSF differentiated BMDM, M1 polarised, 10^−7M, versus vehicle
Structure (SMILES),scratch closure [1],expression of ERα and ERβ [2],"expression of collagen 1 and fibronectin (Fn1) [2, 5]","expression of collagen 1 and fibronectin (Fn1) [2, 6]",MMP2 activity in cell supernatants (MMP2),expression of differentiation marker Keratin 1 (Krt1) [3],expression of EMT marker Snail [3],expression of ERα and ERβ [3],"expression of M1 markers (iNOS, IL1-β, Tnf-α) [4, 7]","relative iNOS expression (M1 cell phenotype) [4, 8]","expression of M1 marker iNOS [4, 9]","expression of M1 markers (iNOS, IL1-β, Tnf-α) [4, 10]"
"C[C@]12CC[C@@H]3c4ccc(O)cc4CC[C@H]3[C@@H]1CC[C@@H]2O [Formulation E2, 17β-estradiol, reference compound]",significantly increased scratch closure compared to vehicle control treatment,upregulated expression of both ERα and ERβ,trend towards increased expression of both Co1a1 and Fn1,no effect was observed following treatment,significantly reduced MMP2 activity versus control,trend towards downregulation,statistically significant induction,strong trend towards induction of both ERα and ERβ,trend toward decreased expression of a range of M1 markers,significantly dampened the M1 cell phenotype,statistically significant reduction in the M1 marker INOS,strong trend towards reduced expression
"C[C@]12CC[C@@H]3c4ccc(O)cc4CC[C@H]3[C@@H]1[C@@H](O)[C@@H](O)[C@@H]2O [Formulation E4, 1,3,5 (10)-estratrien-3,15alpha, 16alpha, 17beta-tetrol]",significantly increased scratch closure compared to vehicle control treatment,increases expression of both ERα and ERβ,trend towards increased expression of both Co1a1 and Fn1; also recorded: reached statistical significance for fibronectin (Fn1),no effect was observed following treatment,significantly reduced MMP2 activity versus control,trend towards downregulation,statistically significant induction,strong trend towards increased expression of both ERα and ERβ,trend toward decreased expression of a range of M1 markers,significantly dampened the M1 cell phenotype,statistically significant reduction in the M1 marker INOS,strong trend towards reduced expression
